From patent US6737383B1, “Herbicidal oxadiazolidines” (priority 1999, dated 2004)

Assays:
wild oat = assay: Test B pre/postemergence wild oat; assay type: in vivo, Avena fatua
How it was run: (§1)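 Response is a visual 0-to-10 score relative to untreated plants, where 0 means no effect and 10 means complete control, taken twelve to sixteen days after application. Treatments went onto soil at planting and onto foliage of 1- to 4-leaf plants, using a surfactant-containing non-phytotoxic solvent.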

crabgrass = assay: Test B pre/postemergence crabgrass; assay type: in vivo, Digitaria sanguinalis
How it was run: as §1

corn = assay: Test B pre/postemergence corn; assay type: in vivo, Zea mays
How it was run: as §1

sugar beet = assay: Test B pre/postemergence sugar beet; assay type: in vivo, Beta vulgaris
How it was run: as §1

bamyardgrass = assay: Test B flood test barnyardgrass; assay type: in vivo, Echinochloa crus-galli
How it was run: (§2)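 Read-out is a visual response score from 0 (no effect) to 10 (complete control), assigned by comparison with untreated controls. Treatment was applied at the 2-leaf stage, and plants stayed in the greenhouse for twelve to sixteen days before scoring.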

rape = assay: Test B pre/postemergence rape; assay type: in vivo, Brassica napus
How it was run: as §1

purple nutsedge = assay: Test B pre/postemergence purple nutsedge; assay type: in vivo, Cyperus rotundus
How it was run: as §1

morningglory = assay: Test B pre/postemergence morningglory; assay type: in vivo, Ipomoea hederacea
How it was run: as §1

cocklebur = assay: Test B pre/postemergence cocklebur; assay type: in vivo, Xanthium strumarium
How it was run: as §1

rice = assay: Test B flood test rice; assay type: in vivo, Oryza sativa
How it was run: as §2

giant foxtail = assay: Test B pre/postemergence giant foxtail; assay type: in vivo, Setaria faberii
How it was run: as §1

surinam grass = assay: Test B pre/postemergence surinam grass; assay type: in vivo, Brachiaria decumbens
How it was run: as §1

soybean = assay: Test B pre/postemergence soybean; assay type: in vivo, Glycine max
How it was run: as §1

smallflower flatsedge = assay: Test B flood test smallflower flatsedge; assay type: in vivo, Cyperus difformis
How it was run: as §2

pigweed = assay: Test B pre/postemergence pigweed; assay type: in vivo, Amaranthus retroflexus
How it was run: as §1

duck salad = assay: Test B flood test duck salad; assay type: in vivo, Heteranthera limosa
How it was run: as §2

[1] = Postemergence, Rate 62 g/ha, scale 0 to 10, 0 is no effect, 10 is complete control
[2] = Postemergence, Rate 250 g/ha, scale 0 to 10, 0 no effect, 10 complete control
[3] = Preemergence, Rate 125 g/ha, scale 0 to 10 (0 no effect, 10 complete control)
[4] = Preemergence, Rate 250 g/ha, scale of 0 to 10 where 0 is no effect and 10 is complete control
[5] = Preemergence, Rate 500 g/ha, scale 0 (no effect) to 10 (complete control)
[6] = Rate 125 g/ha, Postemergence, scale 0 to 10, 0 no effect, 10 complete control
[7] = Preemergence, Rate 62 g/ha, scale 0 to 10, 0 is no effect, 10 is complete control
[8] = Rate 500 g/ha, Postemergence, 0 to 10 scale (0 no effect, 10 complete control)
[9] = Rate 31 g/ha, Postemergence section (flood test species), scale 0 to 10
[10] = Rate 125 g/ha, Postemergence section (flood test species), scale 0 to 10, 0 no effect, 10 complete control
[11] = flood test, listed under Postemergence, Rate 250 g/ha, scale 0 to 10, 0 no effect, 10 complete control

Compound: CC(C)N(C(=O)n1oc(=O)n(-c2ccccc2OC(F)(F)F)c1=O)c1ccc(F)cc1 [Compound 14]
- Wild oats plant response rating (wild oat; [1]): 0
- Wild oats plant response rating (wild oat; [2]): 0
- Plant response rating, Wild oats (wild oat; [3]): 0
- Plant response rating, Wild oats (wild oat; [4]): 0
- Wild oats plant response rating (wild oat; [5]): 0
- Wild oats plant response rating (wild oat; [6]): 0
- Crabgrass plant response rating (crabgrass; [1]): 0
- Crabgrass plant response rating (crabgrass; [2]): 0
- Plant response rating, Crabgrass (crabgrass; [7]): 0
- Plant response rating, Crabgrass (crabgrass; [3]): 0
- Plant response rating, Crabgrass (crabgrass; [4]): 9
- Crabgrass plant response rating (crabgrass; [5]): 9
- Crabgrass plant response rating (crabgrass; [6]): 0
- Crabgrass plant response rating (crabgrass; [8]): 8
- Corn plant response rating (corn; [1]): 0
- Corn plant response rating (corn; [2]): 0
- Plant response rating, Corn (corn; [7]): 0
- Plant response rating, Corn (corn; [3]): 0
- Plant response rating, Corn (corn; [4]): 0
- Corn plant response rating (corn; [5]): 4
- Corn plant response rating (corn; [6]): 0
- Corn plant response rating (corn; [8]): 0
- Sugarbeets plant response rating (sugar beet; [1]): 0
- Sugarbeets plant response rating (sugar beet; [2]): 0
- Plant response rating, Sugarbeets (sugar beet; [7]): 0
- Plant response rating, Sugarbeets (sugar beet; [3]): 0
- Plant response rating, Sugarbeets (sugar beet; [4]): 0
- Sugarbeets plant response rating (sugar beet; [5]): 0
- Sugarbeets plant response rating (sugar beet; [6]): 0
- Barnyardgrass plant response rating (bamyardgrass; [1]): 0
- Barnyardgrass plant response rating (bamyardgrass; [9]): 0
- Barnyardgrass plant response rating (bamyardgrass; [10]): 0
- Barnyardgrass plant response rating (bamyardgrass; [11]): 0
- Rape plant response rating (rape; [1]): 0
- Rape plant response rating (rape; [2]): 0
- Plant response rating, Rape (rape; [7]): 0
- Plant response rating, Rape (rape; [3]): 0
- Plant response rating, Rape (rape; [4]): 0
- Rape plant response rating (rape; [5]): 0
- Rape plant response rating (rape; [6]): 0
- Rape plant response rating (rape; [8]): 0
- Nutsedge plant response rating (purple nutsedge; [1]): 0
- Nutsedge plant response rating (purple nutsedge; [2]): 0
- Plant response rating, Nutsedge (purple nutsedge; [7]): 0
- Plant response rating, Nutsedge (purple nutsedge; [3]): 0
- Plant response rating, Nutsedge (purple nutsedge; [4]): 0
- Nutsedge plant response rating (purple nutsedge; [5]): 0
- Nutsedge plant response rating (purple nutsedge; [6]): 0
- Nutsedge plant response rating (purple nutsedge; [8]): 0
- Morningglory plant response rating (morningglory; [1]): 1
- Morningglory plant response rating (morningglory; [2]): 4
- Plant response rating, Morningglory (morningglory; [7]): 0
- Plant response rating, Morningglory (morningglory; [3]): 0
- Plant response rating, Morningglory (morningglory; [4]): 0
- Morningglory plant response rating (morningglory; [5]): 0
- Morningglory plant response rating (morningglory; [6]): 2
- Morningglory plant response rating (morningglory; [8]): 6
- Cocklebur plant response rating (cocklebur; [1]): 0
- Cocklebur plant response rating (cocklebur; [2]): 0
- Plant response rating, Cocklebur (cocklebur; [7]): 0
- Plant response rating, Cocklebur (cocklebur; [3]): 0
- Plant response rating, Cocklebur (cocklebur; [4]): 0
- Cocklebur plant response rating (cocklebur; [5]): 0
- Cocklebur plant response rating (cocklebur; [6]): 0
- Cocklebur plant response rating (cocklebur; [8]): 0
- Rice plant response rating (rice; [1]): 0
- Rice plant response rating (rice; [9]): 0
- Rice plant response rating (rice; [10]): 0
- Rice plant response rating (rice; [11]): 0
- Giant foxtail plant response rating (giant foxtail; [1]): 0
- Giant foxtail plant response rating (giant foxtail; [2]): 0
- Plant response rating, Giant foxtail (giant foxtail; [7]): 6
- Plant response rating, Giant foxtail (giant foxtail; [3]): 9
- Plant response rating, Giant foxtail (giant foxtail; [4]): 9
- Giant foxtail plant response rating (giant foxtail; [5]): 9
- Giant foxtail plant response rating (giant foxtail; [6]): 0
- Giant foxtail plant response rating (giant foxtail; [8]): 3
- B. signalgrass plant response rating (surinam grass; [1]): 0
- B. signalgrass plant response rating (surinam grass; [2]): 0
- Plant response rating, B. signalgrass (surinam grass; [7]): 0
- Plant response rating, B. signalgrass (surinam grass; [3]): 0
- Plant response rating, B. signalgrass (surinam grass; [4]): 0
- B. signalgrass plant response rating (surinam grass; [5]): 2
- B. signalgrass plant response rating (surinam grass; [6]): 0
- B. signalgrass plant response rating (surinam grass; [8]): 0
- Soybean plant response rating (soybean; [1]): 2
- Soybean plant response rating (soybean; [2]): 2
- Plant response rating, Soybean (soybean; [7]): 0
- Plant response rating, Soybean (soybean; [3]): 0
- Plant response rating, Soybean (soybean; [4]): 0
- Soybean plant response rating (soybean; [5]): 0
- Soybean plant response rating (soybean; [6]): 2
- S. Flatsedge plant response rating (smallflower flatsedge; [1]): 0
- S. Flatsedge plant response rating (smallflower flatsedge; [10]): 0
- S. Flatsedge plant response rating (smallflower flatsedge; [11]): 0
- Redroot pigweed plant response rating (pigweed; [1]): 0
- Redroot pigweed plant response rating (pigweed; [2]): 3
- Plant response rating, Redroot pigweed (pigweed; [7]): 0
- Plant response rating, Redroot pigweed (pigweed; [3]): 0
- Plant response rating, Redroot pigweed (pigweed; [4]): 0
- Redroot pigweed plant response rating (pigweed; [5]): 6
- Redroot pigweed plant response rating (pigweed; [6]): 2
- Redroot pigweed plant response rating (pigweed; [8]): 6
- Ducksalad plant response rating (duck salad; [1]): 0
- Ducksalad plant response rating (duck salad; [9]): 0
- Ducksalad plant response rating (duck salad; [10]): 0
- Ducksalad plant response rating (duck salad; [11]): 0
